From article PMC4210147, “Sequence-Specific Dimerization of a Transmembrane Helix in Amphipol A8-35” (PLoS ONE, 2014)
Entries after “also recorded” stand apart in the source; their conditions may differ. No end group written: not given here.

Experiments:
[1] = octylglucoside with A8-35 and other amphipols; ref [13]; cited from earlier work
[2] = Isothermal titration calorimetry, SDS demicellization in presence of A8-35; assay type: physicochemical; conditions: 25°C, 10 mM phosphate, 150 mM NaCl, pH 7.4
Protocol: ITC experiments were performed on a VP-ITC (GE Healthcare) at 25°C in 10 mM phosphate buffer (150 mM NaCl, pH 7.4). For demicellization experiments, 5-µL aliquots containing both, SDS at a concentration well above its CMC (10-13 mM) as well as A8-35 at concentrations of 5-140 µM, were injected into the sample cell containing the same amphipol concentration but no SDS. Time spans between injections were chosen long enough to allow for complete re-equilibration. Baseline subtraction and peak integration were accomplished using NITPIC [32], and the resulting isotherms were analyzed by nonlinear least-squares fitting in a spreadsheet program.
Thermal denaturation of MPs often leads to irreversible aggregation of the MP, and guanidine hydrochloride and urea, which are frequently used in unfolding studies involving soluble proteins, do typically not denature the TM regions of MPs. This is why the thermodynamic stability of integral MPs within membrane-mimetic systems is often assessed by titrating increasing concentrations of the anionic detergent SDS to MPs dissolved in a mild detergent, such as DDM [24], [40]-[44]. […] At low APol concentrations, the isotherms thus obtained resembled those measured in SDS demicellization experiments in the absence of APol. […]
Figure 5 Interactions of SDS with A8-35 monitored by isothermal titration calorimetry. […]

[3] = target: the molecule itself; experiment: FRET or BRET; steady-state FRET of FL- and TAMRA-labelled peptide (0.25 µM each, 0.5 µM total) in Amphipol A8-35 at 5 to 75 µM; 10 mM HEPES pH 7.4, 150 mM NaCl; 25°C; apparent constants; dimer to monomers
[4] = target: the molecule itself; experiment: FRET or BRET; energy transfer at different acceptor mole ratios at constant total peptide concentration, in 5 µM and 50 µM A8-35
[5] = target: the molecule itself; experiment: FRET or BRET; steady-state FRET at 0.5 µM peptide and 20 µM A8-35 (40:1) with increasing SDS added to preformed APol/GpA complexes; 25°C after incubation at 37°C; apparent constants; dimer to monomers

CCCCCCCCO[C@@H]1O[C@H](CO)[C@@H](O)[C@H](O)[C@H]1O [octylglucoside]
mixing behavior with amphipols [1]: nearly ideal mixing behavior

CCCCCCCCCCCCOS(=O)(=O)[O-].[Na+] [SDS, sodium dodecyl sulfate]
mixing behavior of SDS with A8-35 ([2]; qualitative): follows a more complex pattern; also recorded: strongly non-ideal | nonideality parameters of SDS/A8-35 mixing ([2]; regular mixing model, intermediate SDS contents, A8-35 5-140 µM): 3–4 RT

B1: GpA TM domain peptide (residues 69–101 of human glycophorin A) (peptide)
peptide: SEPEITLIIFGVMAGVIGTILLISYGIRRLIKK
modifications: also: N-terminal label: fluorescein or TAMRA
notes: glycophorin A, human, transmembrane domain, residues 69-101; Self-association is measured by FRET between the FL-labelled and the TAMRA-labelled copy of the same peptide, mixed in equal concentrations (0.25 µM each); both are written as one molecule; also called GpA TM peptide; GpA TM helix; source: synthetic peptide (custom-synthesized, Peptide Specialty Laboratories, Heidelberg)
Kd [3]: < 0.3 µM | stoichiometry N [4]: 2 | fold increase of KD (SDS exceeding 1.5 mM against no SDS) [5]: ~10 fold
